Assay results: ChEMBL document CHEMBL1149010, “A comparative study on anti-inflammatory activities of the enantiomers, shikonin and alkannin” (1986)

Columns and labels:
Assay type in all cases: functional
Rattus norvegicus [1] = assay: Antiinflammatory activity against thermal injury-induced edema in Wistar rat skin assessed as inhibition of edema at 50 ug treated topically relative to control; parameters: scale not given: the % may be the effect or the level left
Rattus norvegicus [2] = assay: Decrease in histamine-induced capillary permeability in Wistar rat assessed as inhibition of pontamine sky blue 6BX dye leakage at 50 ug treated topically relative to control
Rattus norvegicus [3] = assay: Decrease in histamine-induced capillary permeability in Wistar rat assessed as inhibition of pontamine sky blue 6BX dye leakage at 100 ug treated topically relative to control
Rattus norvegicus [4] = assay: Antiinflammatory activity against thermal injury-induced edema in Wistar rat skin assessed as inhibition of edema at 100 ug treated topically relative to control; parameters: scale not given: the % may be the effect or the level left

Row | Compound | Activity (Rattus norvegicus [1]) | inhibition (INH) (Rattus norvegicus [2]) | inhibition (INH) (Rattus norvegicus [3]) | Activity (Rattus norvegicus [4])
1 | CCCCC1C(=O)N(c2ccccc2)N(c2ccccc2)C1=O [PHENYLBUTAZONE] | 38.9% | – | – | –
2 | CC(C)=CC[C@@H](O)C1=CC(=O)c2c(O)ccc(O)c2C1=O (stereo in doubt; form 1) [SHIKONIN] | 22% | 13.7% | 22.3% | 20.6%
3 | CC(C)=CC[C@H](O)C1=CC(=O)c2c(O)ccc(O)c2C1=O [ALKANNIN] | 21.3% | 7.9% | 21.3% | 21.7%
4 | CC(C)=CC[C@@H](O)C1=CC(=O)c2c(O)ccc(O)c2C1=O (stereo in doubt; form 2) [SHIKONIN] | 26.7% | – | – | 23.2%
